US20060258589A1, “Methods for enhancing radiation therapy” (IGF Oncology, LLC, priority 2004, published 2006)

B1: LONG-R3-IGF-1: variant IGF-1 with reduced binding affinity for the soluble IGF-1 binding proteins (SEQ ID NO:1) (protein)
chain: MFPAMPLSSLFVNGPRTLCGAELVDALQFVCGDRGFYFNKPTGYSSSRRAPQTGIVDECCFRSCDLRRLEMYCAPLKPAKSA
modifications: LONG-R3-IGF-1 synthetic variant of IGF-1

Assays:
[1] = tested on: LnCap, MiaPaCa, H226, and A549 tumors; experiment: In vivo assays: growth of tumor volume after irradiation of subcutaneous tumors in nude mice; settings: male nude mice; treated 30 minutes before 15 Gy X-rays; followed for 3 weeks
Method: LnCap, MiaPaCa, H226, and A549 cells are grown in culture. Cells are harvested using 0.25% trypsin, washed, suspended in Dulbecco's PBS, and counted. 1×10^6 cells are injected subcutaneously into the hind thigh of male nude mice. Tumors are grown to 250 mm^3 in ˜21 days. Tumors are measured with a caliper, and the tumor size is calculated by the formula a^2b/2, where a and b are the shorter and longer diameters of the tumor, respectively. When the tumors reach 250 mm^3, the mice are treated with insulin (5 or 40 μg/kg), IGF-1 (5 or 100 μg/kg) or insulin+glucose (5 g glucose/kg), or growth hormone (50 or 500 μg/kg), or saline control 30 minutes before radiation treatment. The mice are anesthetized immediately before radiation treatment, and then the tumor-bearing leg is irradiated with X-rays at 1.4 Gy/minute, receiving a dose of 15 Gy. The growth of tumor volume in the mice after irradiation is followed for 3 weeks.

[2] = tested on: cancer cells; settings: Ciftci 2003; cited from earlier work
[3] = tested on: MiaPaCa, LnCap, H226 and A549 cells; experiment: In vitro assays: surviving fraction (colony formation) of cancer cells after X-ray irradiation; assay type: cell-based, human; settings: hormone added before 200 rads X-rays; for sensitization to radiation: exponential phase cells; for cell killing by radiation: plateau-phase cells, at least some concentrations and times
Method: MiaPaCa (a human pancreatic cancer cell line), LnCap (a human prostate cancer cell line), H226 and A549 (two human lung cancer cell lines) are grown in monolayer cultures in McCoy's 5A medium containing 10% fetal bovine serum and buffered with 2.0 g/L sodium bicarbonate and 0.02 M Hepes, pH 7.4. The cells are at seeded at 6×10^4 cells per T30 flask. On day 3 the medium is changed. The cells are irradiated at either 4 days (exponential cells) or 7 days (plateau-phase cells). Twenty minutes before, 2 hours before, or immediately before irradiation, insulin (0.01, 0.1, or 1 μg/ml) or IGF-1 (3, 20, or 150 ng/ml) is added to the medium. Control cells have no added hormone. The cells are then irradiated with 200 rads X-rays. After irradiation, the cells are allowed to recover in the used medium for 60 minutes.
The cells are then typsinized and plated in fresh medium. The surviving fraction of a specific number of plated cells is determined by staining colonies with methylene blue after 7-10 days of growth.
Exponential-phase and plateau-phase cells are then treated with insulin and IGF-1 separately and together at their experimentally determined optimal concentrations immediately before, 15 minutes before, and 2 hours before irradiation with a range of radiation doses. Again, the cells are trypsinized and plated, and the percent surviving is determined.
Exponential- and plateau-phase cells are then treated with insulin at the optimal concentration in combination with 30 mM glucose.

[4] = tested on: breast cancer cells; settings: tissue culture; methotrexate killing; cited from earlier work
[5] = another study; cited from earlier work
[6] = tested on: soluble IGF-1 binding proteins; settings: compared to native IGF-1; Francis 1992, Tomas 1993; cited from earlier work

Molecule	effectiveness of radiation therapy (growth of tumor volume) [1]	proportion of cells in the G2 and M phases of the cell cycle [2]	sensitization to radiation [3]	cell killing by radiation [3]	enhancement of the killing of breast cancer cells [4]	enhancement of uptake of methotrexate [5] [factor]	binding affinity for the soluble IGF-1 binding proteins [6]
growth hormone	enhance the effectiveness of radiation therapy	–	–	–	–	–	–
insulin-like growth factor-1 [IGF-1]	enhance the effectiveness of radiation therapy	moves a greater proportion of the cells into the G2 and M phases	sensitized to radiation	increase cell killing by radiation	–	–	–
insulin	enhance the effectiveness of radiation therapy	–	sensitized to radiation	increase cell killing by radiation	up to 10,000 fold	2	–
B1	–	–	–	–	–	–	reduced binding affinity
